# According to US20130064712A1, “Composite comprising at least one type of perfluoroalkyl-perfluoro-phthalocyanine” (priority 2009, published 2013):
# Tests used:
# [1] = Singlet oxygen quantum yield; assay type: physicochemical
# Jurkat cells = assay: Accumulation of free F64PcZn in Jurkat cells; assay type: cell-based, human; conditions: free F64PcZn incubated with the cell suspensions
# Source text: If the composite is used also on human skin there is a probability of PS loss by the photoactive foil. In order to protect the human body against undesired phototoxic effects it is important to make sure that the free molecules are not able to enter human cells.
# Laser Phys. 13:22-29 b) M. Regehly , K. Greish, F. Rancan, H. Maeda, B. Röder: Water-soluble polymer conjugates of ZnPP for photodynamic therapy, Bioconjugate Chemistry, 18 (2007) 494-499. c) K. Chen, A. Preuβ, S. Hackbarth, M. Wacker, K. Langer, B. Röder: Novel photosensitizer-protein nanoparticles for Photodynamic Therapy: Photophysical characterization and in vitro investigations, J. Photochem. Photobiol.: B, in press May 2009). It is important to mention that phthalocyanines also belong to the class of tetrapyroles and thus the above comparison is meaningful. Thus, incubating the cell suspensions according to the procedure described in a) Paul A, Hackbarth S, Mölich A, Seifert M, Röder B (2003) Comparative Study on the Photosensitization of Jurkat Cells in vitro by Pheophorbide-a and a Pheophorbide-a Diaminobutane polypropylene-imine Dendrimer Complex. Laser Phys. […]
substance,measurement,setting,value
"1, 4, 8, 11, 15, 18, 22, 25-octafluoro-2, 3, 9, 10, 16, 17, 23, 24-octa-perfluoro-isopropyl-phthalocyanine [F64PcZn]",singlet oxygen quantum yield,[1],around 56%
same,accumulation of the dye inside the cells,Jurkat cells,undetectable accumulation
